Laboratory results from paper PMC8092170 (Indian Journal of Pharmacology, 2021).

Molecular target: T1, peroxisome proliferator-activated receptor gamma (PPARγ) (Homo sapiens, UniProt P37231)
T1 sequence (P37231 223-505 limits assumed): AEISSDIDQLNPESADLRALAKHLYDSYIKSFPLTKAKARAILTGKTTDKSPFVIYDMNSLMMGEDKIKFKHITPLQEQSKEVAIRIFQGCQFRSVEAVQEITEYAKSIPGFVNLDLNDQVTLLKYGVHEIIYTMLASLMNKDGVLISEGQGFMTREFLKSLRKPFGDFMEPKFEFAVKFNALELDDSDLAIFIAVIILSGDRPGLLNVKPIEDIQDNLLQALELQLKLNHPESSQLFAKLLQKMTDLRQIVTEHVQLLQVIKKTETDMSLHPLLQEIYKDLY
Experiment: fluorescence polarization probe displacement
Assay type: binding

O=c1c(-c2ccc(O)cc2)coc2cc(O)cc(O)c12 [genistein]
IC50: 23.9 µM
